Broadly, the pKd is −log10 of the Kd, conventionally taken in molar units. A low value points to a high Kd.

pKd: −log10 of the molar value.

The experiment deals with T1, Serine-rich adhesin for platelets (SraP), L-Lectin module (Staphylococcus aureus, UniProt Q8NUJ3).
T1 construct: SraP L-Lectin domain (L-Lectin of MW2)
In words: SPR (Biacore T200, protein amine-coupled on CM5 chip, kinetic fit). In kind it is binding. For orientation: SPR reads the build-up and loss of mass on a sensor chip optically.

T1 sequence (Q8NUJ3 245-480): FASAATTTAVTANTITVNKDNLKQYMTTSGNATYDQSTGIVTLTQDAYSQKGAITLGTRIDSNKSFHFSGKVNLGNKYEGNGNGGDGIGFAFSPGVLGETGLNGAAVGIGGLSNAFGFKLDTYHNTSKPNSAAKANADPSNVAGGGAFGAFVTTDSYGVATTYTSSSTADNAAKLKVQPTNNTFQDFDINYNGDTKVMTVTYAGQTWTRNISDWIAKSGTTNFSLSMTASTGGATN

`O=C(O[C@@H]1Cc2c(O)cc(O)cc2O[C@@H]1c1cc(O)c(O)c(O)c1)c1cc(O)c(O)c(O)c1` [EGCG] showed a pKd of 5.40.

(Values after paper PMC12844705, “Multitarget Mechanisms of (‒)‒Epigallocatechin-3-Gallate Against MRSA: From SraP L-Lectin Targeting to Synergistic Antibiotic Effects” (Pathogens, 2026).)
